“And” between values parts separate entries of the source, which are not always exact repeats. Equal entries are not always repeated. Inconclusive results and toxic doses are left out.
Tested on: CD2F1 mice, L1210 leukemia ip, survival T/C
Assay: NCI In Vivo Anticancer Drug Screen. Data for tumor model L1210 Leukemia (intraperitoneal) in CD2F1 (CDF1) mice
Conditions: higher = longer survival
Method in brief: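 In this screen, transplantable tumors were grown in mice given either the compound or its vehicle. Results were expressed as the treated measurement relative to the control measurement.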

[1] = endpoint: mean survival time, dose: 100.0 mg/kg/injection, schedule: Q04DX003 (ip), vehicle: saline with Tween-80
[2] = endpoint: mean survival time, dose: 100.0 mg/kg/injection, schedule: Q01DX001 (ip), vehicle: saline with Tween-80

Cc1cc(Cl)ccc1OCC(=O)Nc1nc(N)nc(N)n1
T/C (endpoint: mean survival time, dose: 100.0 mg/kg/injection, schedule: Q01DX009 (ip), vehicle: saline with Tween-80): 105 % of control | T/C [1]: 89 % of control | T/C (endpoint: mean survival time, dose: 200.0 mg/kg/injection, schedule: Q01DX009 (ip), vehicle: saline with Tween-80): 102 % of control | T/C (endpoint: mean survival time, dose: 200.0 mg/kg/injection, schedule: Q04DX003 (ip), vehicle: saline with Tween-80): 90 % of control | T/C (endpoint: mean survival time, dose: 400.0 mg/kg/injection, schedule: Q01DX009 (ip), vehicle: saline with Tween-80): 100 % of control | T/C (endpoint: mean survival time, dose: 400.0 mg/kg/injection, schedule: Q04DX003 (ip), vehicle: saline with Tween-80): 101 % of control

CC(NC(=O)c1cccnc1)C(=O)O (stereo not drawn)
T/C (endpoint: median survival time, dose: 25.0 mg/kg/injection, schedule: Q04DX003 (ip), vehicle: saline): 105 % of control | T/C (endpoint: median survival time, dose: 50.0 mg/kg/injection, schedule: Q04DX003 (ip), vehicle: saline): 115 % of control | T/C (endpoint: median survival time, dose: 100.0 mg/kg/injection, schedule: Q04DX003 (ip), vehicle: saline): 94 % of control | T/C (endpoint: median survival time, dose: 200.0 mg/kg/injection, schedule: Q04DX003 (ip), vehicle: saline): 94 % of control

C=CCOCC(O)CN(CCCC)CCCC (stereo not drawn)
T/C (endpoint: mean survival time, dose: 25.0 mg/kg/injection, schedule: Q04DX003 (ip), vehicle: saline with Tween-80): 104 % of control | T/C (endpoint: mean survival time, dose: 50.0 mg/kg/injection, schedule: Q04DX003 (ip), vehicle: saline with Tween-80): 106 % of control | T/C [1]: 90 % of control and 110 % of control

O=C(O)C(C(=O)O)=C(C(=O)c1ccccc1)c1ccccc1
T/C (endpoint: mean survival time, dose: 100.0 mg/kg/injection, schedule: Q01DX009 (ip), vehicle: other): 95 % of control | T/C (endpoint: mean survival time, dose: 200.0 mg/kg/injection, schedule: Q01DX009 (ip), vehicle: other): 100 % of control | T/C (endpoint: mean survival time, dose: 400.0 mg/kg/injection, schedule: Q01DX009 (ip), vehicle: other): 95 % of control

CCCCCCCCCCCCOc1ccc(Sc2ccc(OCCCCCCCCCCCC)cc2C)c(C)c1
T/C [2]: 86 % of control

O=C1C2CC=CCC2C(=O)N1SC(Cl)(Cl)Cl (stereo not drawn)
T/C (endpoint: mean survival time, dose: 0.78 mg/kg/injection, schedule: Q01DX009 (ip), vehicle: saline with Tween-80): 97 % of control | T/C (endpoint: mean survival time, dose: 1.56 mg/kg/injection, schedule: Q01DX009 (ip), vehicle: saline with Tween-80): 97 % of control | T/C (endpoint: mean survival time, dose: 3.12 mg/kg/injection, schedule: Q01DX009 (ip), vehicle: saline with Tween-80): 97 % of control | T/C (endpoint: mean survival time, dose: 6.25 mg/kg/injection, schedule: Q01DX009 (ip), vehicle: saline with Tween-80): 93 % of control | T/C (endpoint: mean survival time, dose: 12.5 mg/kg/injection, schedule: Q01DX009 (ip), vehicle: saline with Tween-80): 101 % of control | T/C (endpoint: mean survival time, dose: 25.0 mg/kg/injection, schedule: Q01DX009 (ip), vehicle: saline with Tween-80): 89 % of control

C1OC1CO[C@@H]1CO[C@H]2[C@@H]1OC[C@H]2OCC1CO1 (stereo partly drawn)
T/C (endpoint: mean survival time, dose: 12.5 mg/kg/injection, schedule: Q01DX009 (ip), vehicle: suspension in saline): 100 % of control

CCC1(OC(=O)CN2CCN(CCO)CC2)C(=O)OCc2c1cc1n(c2=O)Cc2cc3ccccc3nc2-1 (stereo not drawn)
T/C (endpoint: median survival time, dose: 6.25 mg/kg/injection, schedule: Q04DX002 (ip), vehicle: water): 105 % of control and 108 % of control | T/C (endpoint: median survival time, dose: 12.5 mg/kg/injection, schedule: Q04DX002 (ip), vehicle: water): 108 % of control and 112 % of control | T/C (endpoint: median survival time, dose: 25.0 mg/kg/injection, schedule: Q04DX002 (ip), vehicle: water): 122 % of control and 110 % of control | T/C (endpoint: median survival time, dose: 100.0 mg/kg/injection, schedule: Q04DX002 (ip), vehicle: water): 177 % of control

O=[N+]([O-])c1cnc(C2=C(O)c3ccccc3CC2)s1
T/C (endpoint: mean survival time, dose: 25.0 mg/kg/injection, schedule: Q01DX001 (ip), vehicle: saline with Tween-80): 96 % of control | T/C (endpoint: mean survival time, dose: 50.0 mg/kg/injection, schedule: Q01DX001 (ip), vehicle: saline with Tween-80): 96 % of control | T/C [2]: 100 % of control

OC1CCCC2CCC[N-]C12.OC1CCCC2CCC[N-]C12.[Mn+2] (stereo not drawn)
T/C (endpoint: mean survival time, dose: 25.0 mg/kg/injection, schedule: Q01DX009 (ip), vehicle: Klucel (hydroxypropylcellulose) (HPC)): 104 % of control | T/C (endpoint: mean survival time, dose: 50.0 mg/kg/injection, schedule: Q01DX009 (ip), vehicle: Klucel (hydroxypropylcellulose) (HPC)): 115 % of control | T/C (endpoint: mean survival time, dose: 100.0 mg/kg/injection, schedule: Q01DX009 (ip), vehicle: Klucel (hydroxypropylcellulose) (HPC)): 104 % of control

[O-][N+](=C(c1ccccc1)c1ccccc1)c1ccccc1
T/C (endpoint: mean survival time, dose: 75.0 mg/kg/injection, schedule: Q01DX009 (ip), vehicle: saline with Tween-80): 96 % of control | T/C (endpoint: mean survival time, dose: 150.0 mg/kg/injection, schedule: Q01DX009 (ip), vehicle: saline with Tween-80): 94 % of control | T/C (endpoint: mean survival time, dose: 300.0 mg/kg/injection, schedule: Q01DX009 (ip), vehicle: saline with Tween-80): 94 % of control

CCC1=C/C(=C\c2ccc3c(c2)OCO3)C(=O)S1
T/C (endpoint: mean survival time, dose: 25.0 mg/kg/injection, schedule: Q04DX002 (ip), vehicle: saline with Tween-80): 93 % of control | T/C (endpoint: mean survival time, dose: 50.0 mg/kg/injection, schedule: Q04DX002 (ip), vehicle: saline with Tween-80): 89 % of control | T/C (endpoint: mean survival time, dose: 100.0 mg/kg/injection, schedule: Q04DX002 (ip), vehicle: saline with Tween-80): 93 % of control

CCCCCCCCCC(=O)N1CC[N+](C)(C)CC1
T/C (endpoint: mean survival time, dose: 5.0 mg/kg/injection, schedule: Q01DX001 (ip), vehicle: saline): 102 % of control | T/C (endpoint: mean survival time, dose: 10.0 mg/kg/injection, schedule: Q01DX001 (ip), vehicle: saline): 105 % of control | T/C (endpoint: mean survival time, dose: 20.0 mg/kg/injection, schedule: Q01DX001 (ip), vehicle: saline): 104 % of control

— PubChem BioAssay AID256 (DTP/NCI, 2004)
